Data reported in patent US11564969B2, “Immunorhelin compounds for intracellular infections” (ISR IMMUNE SYSTEM REGULATION HOLDING AB (PUBL), priority 2017, dated 2023).
Square brackets hold non-standard residues; d marks the D form. Peptide text beside a SMILES is read from it. dHis(τ-Bn) = N[C@H](Cc1cn(Cc2ccccc2)cn1)C(=O)O; pGlu = O=C1CC[C@@H](C(=O)O)N1

Tests used:
[1] = Solubility analysis in PBS (Analysis Method B); type: physicochemical; conditions: pH 7.4
Protocol: The solubility of compounds of the invention was tested as described in the general methods. Solubility was then graded according to a rating between 1 to 5, where 1 is most soluble and 5 is least soluble.

GnRHR = molecular target: T1, GnRHR (Homo sapiens, UniProt P30968); conditions: 1000.0
T1 sequence (P30968 1-328): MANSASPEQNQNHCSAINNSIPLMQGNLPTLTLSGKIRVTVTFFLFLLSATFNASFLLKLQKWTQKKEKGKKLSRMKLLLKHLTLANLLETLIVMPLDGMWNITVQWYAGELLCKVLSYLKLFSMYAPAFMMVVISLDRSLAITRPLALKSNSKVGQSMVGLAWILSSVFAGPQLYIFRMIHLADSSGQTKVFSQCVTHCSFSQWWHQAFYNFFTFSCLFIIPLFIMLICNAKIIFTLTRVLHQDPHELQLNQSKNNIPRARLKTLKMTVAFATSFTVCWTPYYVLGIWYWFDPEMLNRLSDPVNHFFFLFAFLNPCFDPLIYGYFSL

CD4+ and CD8+ T cells = test: MHC class I expression on T cells after stimulation of PBMCs, flow cytometry; type: cell-based, human; conditions: PBMCs from healthy donor, with IL-2, 72 hours
Protocol: FIG. 1: Expression of MHC class I after stimulation of T cells with increasing concentrations of GnRH II. PBMCs from a healthy donor was stimulated with GnRH II and IL-2 for 72 hours. Data points represent mean fluorescent intensity of MCH class I expression on CD4^+ T cells (blue triangles) or CD8^+ T cells (black squares) measured with flow cytometry. Human peripheral blood mononuclear cells (PBMCs) were purified from healthy donors with Ficoll-Hypaque density centrifugation. Cells were cultured in RPMI-1640 medium (Invitrogen) supplemented with 10% fetal bovine serum, 100 μg/mL ampicilin and 100 μg/mL streptomycin for 24-72 hours in 37° C., 5% CO2. Cells were stimulated with a compound according to the invention and analysed for expression of cell specific surface markers and […] (monoclonal antibodies from BD Pharmingen) with flow cytomtery.

| Structure (SMILES) | Solubility grading [1] | GNRHR Stimulation at 1 μM (GnRHR) [percentage] | MHC class I expression on T cells (CD4+ and CD8+ T cells) |
| --- | --- | --- | --- |
| NC(=O)CNC(=O)[C@@H]1CCCN1C(=O)[C@H](Cc1ccc(O)cc1)NC(=O)[C@H](Cc1c[nH]c2ccccc12)NC(=O)[C@@H](Cc1c[nH]c2ccccc12)NC(=O)[C@H](Cc1ccc(O)cc1)NC(=O)[C@H](CO)NC(=O)[C@H](Cc1c[nH]c2ccccc12)NC(=O)[C@H](Cc1c[nH]cn1)NC(=O)[C@@H]1CCC(=O)N1 [Compound 64, pGlu-His-Trp-Ser-Tyr-D-Trp-Trp-Tyr-Pro-Gly-amide] ([pGlu]HWSY[dW]WYPG-NH2) | 5 | 50 |  |
| NC(=O)CNC(=O)[C@@H]1CCCN1C(=O)[C@H](Cc1ccc(O)cc1)NC(=O)[C@H](Cc1c[nH]c2ccccc12)NC(=O)[C@@H](Cc1c[nH]c2ccccc12)NC(=O)[C@H](Cc1c[nH]cn1)NC(=O)[C@H](CO)NC(=O)[C@H](Cc1c[nH]c2ccccc12)NC(=O)[C@H](Cc1c[nH]cn1)NC(=O)[C@@H]1CCC(=O)N1 [Compound 65, pGlu-His-Trp-Ser-His-D-Trp-Trp-Tyr-Pro-Gly-amide] ([pGlu]HWSH[dW]WYPG-NH2) | 4 | 72 |  |
| N=C(N)NCCC[C@H](NC(=O)[C@H](Cc1c[nH]c2ccccc12)NC(=O)[C@@H](Cc1c[nH]c2ccccc12)NC(=O)[C@H](Cc1ccc(O)cc1)NC(=O)[C@H](CO)NC(=O)[C@H](Cc1c[nH]c2ccccc12)NC(=O)[C@H](Cc1c[nH]cn1)NC(=O)[C@@H]1CCC(=O)N1)C(=O)N1CCC[C@H]1C(=O)NCC(N)=O [Compound 66, pGlu-His-Trp-Ser-Tyr-D-Trp-Trp-Arg-Pro-Gly-amide] ([pGlu]HWSY[dW]WRPG-NH2) | 5 | 83 |  |
| CCNC(=O)[C@@H]1CCCN1C(=O)[C@H](CCCNC(=N)N)NC(=O)[C@H](Cc1c[nH]c2ccccc12)NC(=O)[C@@H](Cc1cn(Cc2ccccc2)cn1)NC(=O)[C@H](Cc1ccc(O)cc1)NC(=O)[C@H](CO)NC(=O)[C@H](Cc1c[nH]c2ccccc12)NC(=O)[C@H](Cc1c[nH]cn1)NC(=O)[C@@H]1CCC(=O)N1 [Compound 67, pGlu-His-Trp-Ser-Tyr-D-Bhi-Trp-Arg-Pro-NHEt] ([pGlu]HWSY[dHis(τ-Bn)]WRP-NHEt) | 1 | 117 |  |
| CC(C)C[C@H](NC(=O)[C@@H](Cc1c[nH]c2ccccc12)NC(=O)[C@H](Cc1c[nH]cn1)NC(=O)[C@H](CO)NC(=O)[C@H](Cc1c[nH]c2ccccc12)NC(=O)[C@H](Cc1c[nH]cn1)NC(=O)[C@@H]1CCC(=O)N1)C(=O)N[C@@H](CCCNC(=N)N)C(=O)N1CCC[C@H]1C(=O)NCC(N)=O [Compound 68, pGlu-His-Trp-Ser-His-D-Trp-Leu-Arg-Pro-Gly-amide] ([pGlu]HWSH[dW]LRPG-NH2) | 1 | 86 |  |
| NC(=O)CNC(=O)[C@@H]1CCCN1C(=O)[C@H](Cc1ccc(O)cc1)NC(=O)[C@H](Cc1c[nH]c2ccccc12)NC(=O)CNC(=O)[C@H](Cc1c[nH]cn1)NC(=O)[C@H](CO)NC(=O)[C@H](Cc1c[nH]c2ccccc12)NC(=O)[C@H](Cc1c[nH]cn1)NC(=O)[C@@H]1CCC(=O)N1 [GnRH II] ([pGlu]HWSHGWYPG-NH2) |  |  | directly activates these cells |
